# The SangsterLogP compilation
row,logP,Structure (SMILES)
1,7.75,ClC(CCCCCCC(Cl)CC(Cl)(Cl)Cl)CC(Cl)(Cl)Cl (configuration not stated)
2,4.93,CCCCC(Cl)C(Cl)CCC(Cl)CCl (configuration not stated)
3,5.4,ClCC(Cl)CCC(Cl)C(Cl)CCC(Cl)CC(Cl)(Cl)Cl (configuration not stated)
4,6.71,ClC(CCCCC(Cl)CC(Cl)(Cl)Cl)CC(Cl)(Cl)Cl (configuration not stated)
5,4.4,CC(Cl)CCC(Cl)C(Cl)CCC(C)Cl (configuration not stated)
6,4.19,CC(Cl)CCC(Cl)C(Cl)CCC(Cl)CCl (configuration not stated)
7,7.23,ClC(CCCCCC(Cl)CC(Cl)(Cl)Cl)CC(Cl)(Cl)Cl (configuration not stated)
8,6.42,ClCC(Cl)CCCCCCC(Cl)CC(Cl)(Cl)Cl (configuration not stated)
9,4.02,ClCC(Cl)CCC(Cl)C(Cl)CCC(Cl)CCl (configuration not stated)
10,6.72,ClC(CCC(Cl)C(Cl)CCC(Cl)CC(Cl)(Cl)Cl)CC(Cl)(Cl)Cl (configuration not stated)
11,5.01,ClCC(Cl)CCCCCCC(Cl)CCl (configuration not stated)
12,4.2,ClCC(Cl)CCC(Cl)C(Cl)(Cl)CCC(Cl)CCl (configuration not stated)
